Data set [1] can be described thus: Drug uptake in human Jurkat cells assessed as mean fluorescence intensity at 120 uM after 15 mins in presence of bovine serum by propidium iodide staining based FACS analysis. The format is ADME, cell-based. The note with it: 0.25 h.
Data set [2] can be described thus: Drug uptake in human Jurkat cells assessed as mean fluorescence intensity at 7 uM after 15 mins in presence of bovine serum by propidium iodide staining based FACS analysis. The format is ADME, cell-based. The following applies: 0.25 h. A general note: In flow cytometry, cells or beads pass a laser one at a time.
The nature of data set [3]: Cytotoxicity against human Jurkat cells assessed as reduction in cell viability at 120 uM after 4 hrs by WST1 assay. The format is toxicity, cell-based. A general note: Tetrazolium assays rely on reduction of a dye to a coloured formazan, in cell work by metabolically active cells.
Data set [4] can be described thus: Competitive binding affinity to fluorescein-labeled HIV TAR RNA in presence of Escherichia coli tRNA by electrophoretic mobility shift assay. The arrangement: species or system Human immunodeficiency virus. The following applies: read-out: Kd(app). In general terms: A gel shift assay detects complexes by their altered migration in electrophoresis.

With `N=C(N)NCCC[C@H](NC(=O)[C@H](CCCNC(=N)N)NC(=O)[C@H](CCCNC(=N)N)NC(=O)[C@H](CCC(N)=O)NC(=O)[C@H](CCCNC(=N)N)NC(=O)[C@H](CCCNC(=N)N)NC(=O)[C@H](CCCCN)NC(=O)[C@H](CCCCN)NC(=O)[C@H](CCCNC(=N)N)NC(=O)CNC(=O)[C@H](Cc1ccc(O)cc1)NC(=O)CCNC(=O)c1ccc2c(c1)C1(OC2=O)c2ccc(O)cc2Oc2cc(O)ccc21)C(N)=O`, the Drug uptake entry in data set [1] and in data set [2] was “Active” throughout. Also, the Activity entry in data set [3] is on record as “Non-Toxic”.

As to `C[N+](C)(C)CCCC[C@H](NC(=O)[C@H](CCCCN)NC(=O)[C@H](CCCNC(=N)N)NC(=O)CNC(=O)[C@H](Cc1ccc(O)cc1)NC(=O)CCNC(=O)c1ccc2c(c1)C1(OC2=O)c2ccc(O)cc2Oc2cc(O)ccc21)C(=O)N[C@@H](CCCNC(=N)N)C(=O)N[C@@H](CCCNC(=N)N)C(=O)N[C@@H](CCC(N)=O)C(=O)N[C@@H](CCCNC(=N)N)C(=O)N[C@@H](CCCNC(=N)N)C(=O)N[C@@H](CCCNC(=N)N)C(=O)O`, the Drug uptake result in data set [1] is “Active”. In data set [3], the Activity entry is “Non-Toxic”. As for `CC(=O)N[C@@H](Cc1ccc(O)cc1)C(=O)NCC(=O)N[C@@H](CCCNC(=N)N)C(=O)N[C@@H](CCCCN(C)C)C(=O)N[C@@H](CCCCN)C(=O)N[C@@H](CCCNC(=N)N)C(=O)N[C@@H](CCCNC(=N)N)C(=O)N[C@@H](CCC(N)=O)C(=O)N[C@@H](CCCNC(=N)N)C(=O)N[C@@H](CCCNC(=N)N)C(=O)N[C@@H](CCCNC(=N)N)C(N)=O`, the Kd in data set [4] worked out at 183 nM. For the compound `CN(C)CCCC[C@H](NC(=O)[C@H](CCCNC(=N)N)NC(=O)CNC(=O)[C@H](Cc1ccc(O)cc1)NC(=O)CCNC(=O)c1ccc2c(c1)C1(OC2=O)c2ccc(O)cc2Oc2cc(O)ccc21)C(=O)N[C@@H](CCCCN)C(=O)N[C@@H](CCCNC(=N)N)C(=O)N[C@@H](CCCNC(=N)N)C(=O)N[C@@H](CCC(N)=O)C(=O)N[C@@H](CCCNC(=N)N)C(=O)N[C@@H](CCCNC(=N)N)C(=O)N[C@@H](CCCNC(=N)N)C(=O)O`, the Drug uptake entry in data set [1] and in data set [2] was “Active” each time. In addition, in data set [3], the Activity entry is “Non-Toxic”.

For the compound `C[N+](C)(C)CCCC[C@H](NC(=O)[C@H](CCCNC(=N)N)NC(=O)CNC(=O)[C@H](Cc1ccc(O)cc1)NC(=O)CCNC(=O)c1ccc2c(c1)C1(OC2=O)c2ccc(O)cc2Oc2cc(O)ccc21)C(=O)N[C@@H](CCCCN)C(=O)N[C@@H](CCCNC(=N)N)C(=O)N[C@@H](CCCNC(=N)N)C(=O)N[C@@H](CCC(N)=O)C(=O)N[C@@H](CCCNC(=N)N)C(=O)N[C@@H](CCCNC(=N)N)C(=O)N[C@@H](CCCNC(=N)N)C(=O)O`, the Drug uptake result in data set [1] and in data set [2] was “Active” throughout. For the same compound, the Activity result in data set [3] is “Non-Toxic”. On to `CC(=O)NCCCC[C@H](NC(=O)[C@H](CCCNC(=N)N)NC(=O)CNC(=O)[C@H](Cc1ccc(O)cc1)NC(C)=O)C(=O)N[C@@H](CCCCN)C(=O)N[C@@H](CCCNC(=N)N)C(=O)N[C@@H](CCCNC(=N)N)C(=O)N[C@@H](CCC(N)=O)C(=O)N[C@@H](CCCNC(=N)N)C(=O)N[C@@H](CCCNC(=N)N)C(=O)N[C@@H](CCCNC(=N)N)C(N)=O`, for which, in data set [4], the Kd was 437 nM. On the same count and under the same terms, in the case of `CC(=O)N[C@@H](Cc1ccc(O)cc1)C(=O)NCC(=O)N[C@@H](CCCNC(=N)N)C(=O)N[C@@H](CCCC[N+](C)(C)C)C(=O)N[C@@H](CCCCN)C(=O)N[C@@H](CCCNC(=N)N)C(=O)N[C@@H](CCCNC(=N)N)C(=O)N[C@@H](CCC(N)=O)C(=O)N[C@@H](CCCNC(=N)N)C(=O)N[C@@H](CCCNC(=N)N)C(=O)N[C@@H](CCCNC(=N)N)C(N)=O` it was 168 nM. On to `CNCCCC[C@H](NC(=O)[C@H](CCCCN)NC(=O)[C@H](CCCNC(=N)N)NC(=O)CNC(=O)[C@H](Cc1ccc(O)cc1)NC(=O)CCNC(=O)c1ccc2c(c1)C1(OC2=O)c2ccc(O)cc2Oc2cc(O)ccc21)C(=O)N[C@@H](CCCNC(=N)N)C(=O)N[C@@H](CCCNC(=N)N)C(=O)N[C@@H](CCC(N)=O)C(=O)N[C@@H](CCCNC(=N)N)C(=O)N[C@@H](CCCNC(=N)N)C(=O)N[C@@H](CCCNC(=N)N)C(=O)O`, for which the Activity entry in data set [3] is “Non-Toxic”. The same measure, in the same setting: in the case of `CC(=O)NCCCC[C@H](NC(=O)[C@H](CCCCN)NC(=O)[C@H](CCCNC(=N)N)NC(=O)CNC(=O)[C@H](Cc1ccc(O)cc1)NC(=O)CCNC(=O)c1ccc2c(c1)C1(OC2=O)c2ccc(O)cc2Oc2cc(O)ccc21)C(=O)N[C@@H](CCCNC(=N)N)C(=O)N[C@@H](CCCNC(=N)N)C(=O)N[C@@H](CCC(N)=O)C(=O)N[C@@H](CCCNC(=N)N)C(=O)N[C@@H](CCCNC(=N)N)C(=O)N[C@@H](CCCNC(=N)N)C(=O)O` it was “Non-Toxic”. With `CC(=O)NCCCC[C@H](NC(=O)[C@H](CCCNC(=N)N)NC(=O)CNC(=O)[C@H](Cc1ccc(O)cc1)NC(=O)CCNC(=O)c1ccc2c(c1)C1(OC2=O)c2ccc(O)cc2Oc2cc(O)ccc21)C(=O)N[C@@H](CCCCN)C(=O)N[C@@H](CCCNC(=N)N)C(=O)N[C@@H](CCCNC(=N)N)C(=O)N[C@@H](CCC(N)=O)C(=O)N[C@@H](CCCNC(=N)N)C(=O)N[C@@H](CCCNC(=N)N)C(=O)N[C@@H](CCCNC(=N)N)C(=O)O`, the Activity result in data set [3] is “Non-Toxic”.

Consider `CNCCCC[C@H](NC(=O)[C@H](CCCNC(=N)N)NC(=O)CNC(=O)[C@H](Cc1ccc(O)cc1)NC(=O)CCNC(=O)c1ccc2c(c1)C1(OC2=O)c2ccc(O)cc2Oc2cc(O)ccc21)C(=O)N[C@@H](CCCCN)C(=O)N[C@@H](CCCNC(=N)N)C(=O)N[C@@H](CCCNC(=N)N)C(=O)N[C@@H](CCC(N)=O)C(=O)N[C@@H](CCCNC(=N)N)C(=O)N[C@@H](CCCNC(=N)N)C(=O)N[C@@H](CCCNC(=N)N)C(=O)O`, for which the Drug uptake result in data set [1] and in data set [2] was “Active” each time. Further, in data set [3], the Activity result was “Non-Toxic”. For `CC(=O)N[C@@H](Cc1ccc(O)cc1)C(=O)NCC(=O)N[C@@H](CCCNC(=N)N)C(=O)N[C@@H](CCCCN)C(=O)N[C@@H](CCCCN(C)C)C(=O)N[C@@H](CCCNC(=N)N)C(=O)N[C@@H](CCCNC(=N)N)C(=O)N[C@@H](CCC(N)=O)C(=O)N[C@@H](CCCNC(=N)N)C(=O)N[C@@H](CCCNC(=N)N)C(=O)N[C@@H](CCCNC(=N)N)C(N)=O`, the Kd in data set [4] is 280 nM. `CN(C)CCCC[C@H](NC(=O)[C@H](CCCCN)NC(=O)[C@H](CCCNC(=N)N)NC(=O)CNC(=O)[C@H](Cc1ccc(O)cc1)NC(=O)CCNC(=O)c1ccc2c(c1)C1(OC2=O)c2ccc(O)cc2Oc2cc(O)ccc21)C(=O)N[C@@H](CCCNC(=N)N)C(=O)N[C@@H](CCCNC(=N)N)C(=O)N[C@@H](CCC(N)=O)C(=O)N[C@@H](CCCNC(=N)N)C(=O)N[C@@H](CCCNC(=N)N)C(=O)N[C@@H](CCCNC(=N)N)C(=O)O`: the Drug uptake entry in data set [1] was “Active”. In data set [3], the Activity entry is listed as “Non-Toxic”.

With `CC(=O)NCCCC[C@H](NC(=O)[C@H](CCCCN)NC(=O)[C@H](CCCNC(=N)N)NC(=O)CNC(=O)[C@H](Cc1ccc(O)cc1)NC(C)=O)C(=O)N[C@@H](CCCNC(=N)N)C(=O)N[C@@H](CCCNC(=N)N)C(=O)N[C@@H](CCC(N)=O)C(=O)N[C@@H](CCCNC(=N)N)C(=O)N[C@@H](CCCNC(=N)N)C(=O)N[C@@H](CCCNC(=N)N)C(N)=O`, the Kd in data set [4] was determined as 371 nM. Still for that read-out and setting: with `CNCCCC[C@H](NC(=O)[C@H](CCCCN)NC(=O)[C@H](CCCNC(=N)N)NC(=O)CNC(=O)[C@H](Cc1ccc(O)cc1)NC(C)=O)C(=O)N[C@@H](CCCNC(=N)N)C(=O)N[C@@H](CCCNC(=N)N)C(=O)N[C@@H](CCC(N)=O)C(=O)N[C@@H](CCCNC(=N)N)C(=O)N[C@@H](CCCNC(=N)N)C(=O)N[C@@H](CCCNC(=N)N)C(N)=O` the figure was 410 nM; with `CNCCCC[C@H](NC(=O)[C@H](CCCNC(=N)N)NC(=O)CNC(=O)[C@H](Cc1ccc(O)cc1)NC(C)=O)C(=O)N[C@@H](CCCCN)C(=O)N[C@@H](CCCNC(=N)N)C(=O)N[C@@H](CCCNC(=N)N)C(=O)N[C@@H](CCC(N)=O)C(=O)N[C@@H](CCCNC(=N)N)C(=O)N[C@@H](CCCNC(=N)N)C(=O)N[C@@H](CCCNC(=N)N)C(N)=O`, 264 nM. On the same count and under the same terms, with `CC(=O)N[C@@H](Cc1ccc(O)cc1)C(=O)NCC(=O)N[C@@H](CCCNC(=N)N)C(=O)N[C@@H](CCCCN)C(=O)N[C@@H](CCCC[N+](C)(C)C)C(=O)N[C@@H](CCCNC(=N)N)C(=O)N[C@@H](CCCNC(=N)N)C(=O)N[C@@H](CCC(N)=O)C(=O)N[C@@H](CCCNC(=N)N)C(=O)N[C@@H](CCCNC(=N)N)C(=O)N[C@@H](CCCNC(=N)N)C(N)=O` the figure was 599 nM.

The values are drawn from ChEMBL document CHEMBL3860082, “Effect of lysine methylation and acetylation on the RNA recognition and cellular uptake of Tat-derived peptides” (Bioorg Med Chem, 2016).
